Measured values as given in the OligoGym collection.
Bases are written 5' to 3'; sugars and linkages follow in the same order, as letters with counts (s phosphorothioate, o phosphodiester; PS: all linkages phosphorothioate). The collection does not say whether C is 5-methylated. l = locked nucleic acid (LNA); d = 2'-deoxy (DNA)

Molecular target: Tau
Experiment: rat primary cortical neurons, FLIPR, 25 uM ASO

Going from TGGATATAGTTAAGGC (sugars l2 d11 l3, PS) to “TCCTCACTTTACACATTAAA (sugars l4 d14 l2, PS)”, the calcium oscillation score falls from 95.2 % of control to 70.3 % of control.

Compared with “ACCTTTTTCCATCTTACTAA (sugars l4 d13 l3, PS)”, “CTTTATTTCCAAATTCAC (sugars l5 d9 l4, PS)” is higher in calcium oscillation score: 52 % of control for the first, 104 % of control for the second.

First: CCTCTGTCTTAACTTTT (sugars l3 d10 l4, PS)
Second: TTTAACTCAAATCAATTCTC (sugars l4 d12 l4, PS)
The calcium oscillation score of the first is higher: 97 % of control for the first, 65.7 % of control for the second.

Going from “AACATTCTCACCAAACCCA (sugars l3 d14 l2, PS)” to AATTTCACCCTCAGTA (sugars l3 d10 l3, PS), the calcium oscillation score falls from 78.4 % of control to 73 % of control.

Compared with “TGCTTACACACCACACAC (sugars l2 d13 l3, PS)”, GCATCAGAGGTTTCAG (sugars l3 d10 l3, PS) is lower in calcium oscillation score: 60.7 % of control for the first, 0 % of control for the second.

First: CCCGTGGTCTGTCT (sugars l3 d8 l3, PS)
Second: TGCCCATTCAAAATCTT (sugars l3 d11 l3, PS)
The calcium oscillation score of the first is higher: 89.8 % of control for the first, 74.3 % of control for the second.

Going from ACTTCTAATTTAGTCAC (sugars l4 d9 l4, PS) to “CTCTGTCACTTACTACTC (sugars l3 d13 l2, PS)”, the calcium oscillation score rises from 77.2 % of control to 80.8 % of control.

Compared with “TCAAAATCCTTAATTTAACC (sugars l4 d12 l4, PS)”, “CTAATATCCTTGCTATC (sugars l3 d10 l4, PS)” is lower in calcium oscillation score: 70.7 % of control for the first, 55.7 % of control for the second.

Going from CTTCTGTCACTTATTTA (sugars l4 d9 l4, PS) to GTCCCGAGCCAAAGCC (sugars l3 d10 l3, PS), the calcium oscillation score falls from 46.9 % of control to 31.3 % of control.

Going from “CGGAAGGTCAGCTTGTGGGT (sugars l3 d14 l3, PS)” to “TTTATTTCCAAATTCACTTT (sugars l4 d11 l5, PS)”, the calcium oscillation score rises from 14.5 % of control to 138 % of control.

Going from “CTAATTCCCAAATTCCTCAT (sugars l3 d14 l3, PS)” to “AGACCACATTTCCATCC (sugars l2 d13 l2, PS)”, the calcium oscillation score rises from 60.9 % of control to 72 % of control.

First: TACTAGCCCACCCATC (sugars l3 d10 l3, PS)
Second: TCAACTCTTAGCATCCAC (sugars l2 d13 l3, PS)
The calcium oscillation score of the first is higher: ≥ 200 % of control for the first, 50 % of control for the second.

First: TCCACCCTTACACATA (sugars l3 d11 l2, PS)
Second: AAAATATCCTTACCATCCT (sugars l2 d13 l4, PS)
The calcium oscillation score of the first is lower: 48.8 % of control for the first, 73.9 % of control for the second.

Compared with “AACCACTCTTATTCTTTAAA (sugars l4 d12 l4, PS)”, “CAACTCAACATTACCCTTA (sugars l4 d13 l2, PS)” is lower in calcium oscillation score: 91.3 % of control for the first, 81.1 % of control for the second.

First: CATAATCCTACCACCAG (sugars l2 d12 l3, PS)
Second: TCAAACACACCTTCATTTAC (sugars l2 d14 l4, PS)
The calcium oscillation score of the first is lower: 61.3 % of control for the first, 82.2 % of control for the second.

Going from “CCCCATTTTTGACATAT (sugars l2 d12 l3, PS)” to GGACGTTGCTAAGATC (sugars l3 d10 l3, PS), the calcium oscillation score falls from 73.1 % of control to 3.32 % of control.

Compared with “TTTAACTCAAATCAATTCT (sugars l4 d11 l4, PS)”, “TCTGTCACTTACTACTCA (sugars l3 d13 l2, PS)” is lower in calcium oscillation score: 72.6 % of control for the first, 66 % of control for the second.

Going from “AGCTTCGTCTTCCAGGCTGG (sugars l3 d14 l3, PS)” to GTGACAGAAGAGACGT (sugars l3 d10 l3, PS), the calcium oscillation score falls from 13.3 % of control to 0 % of control.

Going from “ATTATTTACACTGTCCT (sugars l2 d11 l4, PS)” to “ACTTTATTTCCAAATTCACTTTTAC (sugars lldlddddddddddddddddldlll, PS)”, the calcium oscillation score falls from 78.1 % of control to 35.4 % of control.

Going from CGATGCTGCCGGTGGA (sugars l3 d10 l3, PS) to “GCCTTACTTTCTACTCAA (sugars l2 d13 l3, PS)”, the calcium oscillation score rises from 2.61 % of control to 53.9 % of control.

Going from CCCTTAATTTCACCCT (sugars l3 d10 l3, PS) to “ATTTCCAAATTCACTTTTAC (sugars lldlldddddddddlddlll, PS)”, the calcium oscillation score falls from 80.9 % of control to 35.4 % of control.

Compared with AGAAATAAGTGGTAGT (sugars l4 d9 l3, PS), AGAAATAAGTGGTAGT (sugars l2 d12 l2, PS) is lower in calcium oscillation score: 89.3 % of control for the first, 86.9 % of control for the second.

First: TTCTCGCGGAAGGTCA (sugars l3 d10 l3, PS)
Second: CACCCAAACTCCAAGTTC (sugars l4 d12 l2, PS)
The calcium oscillation score of the first is lower: 0 % of control for the first, 53.9 % of control for the second.

Going from GCGAGTCTACCATGTC (sugars l3 d10 l3, PS) to “CCAATTAACCGAACTGCGAG (sugars l3 d14 l3, PS)”, the calcium oscillation score falls from 76 % of control to 41.4 % of control.

Compared with “ACTTTATTTCCAAATTCACTTTTAC (sugars l1 d19 l5, PS)”, “GTTATACAGTTGGCCCTACC (sugars l3 d14 l3, PS)” is lower in calcium oscillation score: 86.5 % of control for the first, 14.3 % of control for the second.

First: ATTTCCAAATTCACTTTTAC (sugars l5 d11 l4, PS)
Second: CTCCTAATTTTGCACTCA (sugars l3 d13 l2, PS)
The calcium oscillation score of the first is higher: 78.8 % of control for the first, 50.5 % of control for the second.

First: CAGGTCTGGCATGGGCACGG (sugars l3 d14 l3, PS)
Second: ACCCCACATTTGCAAACC (sugars l2 d13 l3, PS)
The calcium oscillation score of the first is lower: 0 % of control for the first, 46.2 % of control for the second.

Going from “TAACCAGCTAGTGGTGCCAC (sugars l3 d14 l3, PS)” to TGATAAAACATCCCTA (sugars l4 d8 l4, PS), the calcium oscillation score rises from 18.4 % of control to 80.5 % of control.

First: TTCTCTAATTGTCCAAT (sugars l4 d9 l4, PS)
Second: TAATTCATAAATGACTATAC (sugars l3 d14 l3, PS)
The calcium oscillation score of the first is lower: 64 % of control for the first, 72.5 % of control for the second.

Going from “TAATAGATCTTTCCCCTC (sugars l2 d13 l3, PS)” to “CATTTACCAATTATCTTTAA (sugars l4 d12 l4, PS)”, the calcium oscillation score falls from 101 % of control to 72 % of control.

Compared with “TTTCATCTACTTTTCAGC (sugars l4 d12 l2, PS)”, “ACCCACTTTCCTAATTCCCA (sugars l1 d17 l2, PS)” is higher in calcium oscillation score: 39.4 % of control for the first, 76.6 % of control for the second.

Compared with “AACATCTAAACACCTCAATC (sugars l4 d12 l4, PS)”, “TATTTCCAAATTCACTTTTA (sugars ldlllddddddddddlldll, PS)” is higher in calcium oscillation score: 77.6 % of control for the first, 145 % of control for the second.

Compared with TAAAGTCCCAGGTC (sugars l3 d8 l3, PS), CCCTTAATTTCACCC (sugars l3 d9 l3, PS) is higher in calcium oscillation score: 72.4 % of control for the first, 103 % of control for the second.

Compared with “ATTTATTCTTTTTATTATTT (sugars l4 d12 l4, PS)”, “CTTTATTTCCAAATTCACTT (sugars l5 d10 l5, PS)” is higher in calcium oscillation score: 59.6 % of control for the first, ≥ 200 % of control for the second.

Going from “ACCACTGGCGACTTGTACAC (sugars l3 d14 l3, PS)” to GATCTTAGGCTGGCC (sugars l3 d9 l3, PS), the calcium oscillation score rises from 5.18 % of control to 8.13 % of control.

Going from “AACTGGTTTGTAGACTATTT (sugars l3 d14 l3, PS)” to “CCAGCGTGATCTTCCATCAC (sugars l4 d11 l5, PS)”, the calcium oscillation score rises from 0 % of control to 124 % of control.

First: CTTAGTCATCTTCCCTCA (sugars l2 d14 l2, PS)
Second: CATTGGAACTGAGCAC (sugars l3 d10 l3, PS)
The calcium oscillation score of the first is higher: 93.8 % of control for the first, 8.33 % of control for the second.

Going from “TTAATTCATTTAATTCTCTT (sugars l4 d12 l4, PS)” to TTTCTCTAATTGTCCAA (sugars l4 d9 l4, PS), the calcium oscillation score falls from 86.1 % of control to 56.6 % of control.

Compared with “ATTTCCAAATTCACTTTTAC (sugars llldldddddddddllddll, PS)”, “TTTCAACTCTTAGCATCC (sugars l2 d12 l4, PS)” is lower in calcium oscillation score: 131 % of control for the first, 52.5 % of control for the second.

Compared with CCTTTGAAAGTCCTTT (sugars l3 d9 l4, PS), TGATCTTAGGCTGGC (sugars l3 d9 l3, PS) is lower in calcium oscillation score: 90.5 % of control for the first, 44.1 % of control for the second.

Going from CTAATCCTGTGCTTC (sugars l3 d9 l3, PS) to “TCAGCTTGTGGGTTTCAATC (sugars l3 d14 l3, PS)”, the calcium oscillation score falls from 73.1 % of control to 13.3 % of control.

Going from “AGTCTACCATGTCGATGCTG (sugars l3 d14 l3, PS)” to “TCGAAACCAAGGTCCCACCA (sugars l3 d14 l3, PS)”, the calcium oscillation score falls from 71.2 % of control to 28.2 % of control.

Compared with CTTCCAAGACTTCTCC (sugars l4 d10 l2, PS), ACTATGAAATCCTTCT (sugars l4 d8 l4, PS) is higher in calcium oscillation score: 77.2 % of control for the first, 92.1 % of control for the second.

First: TATTTCCAAATTCACTTTTA (sugars lldllddddddddddlldll, PS)
Second: CGAAACCAAGGTCCCACCAG (sugars l3 d14 l3, PS)
The calcium oscillation score of the first is higher: 119 % of control for the first, 40.4 % of control for the second.

First: AGACTATTTGCACACTGCCG (sugars l3 d14 l3, PS)
Second: AGGCGCGAGCAGCG (sugars l3 d8 l3, PS)
The calcium oscillation score of the first is lower: 40.7 % of control for the first, 100 % of control for the second.

First: TCCTAATTCCCAAATTCCTC (sugars l2 d15 l3, PS)
Second: TCCTTTGTAATTCCTTCT (sugars l3 d13 l2, PS)
The calcium oscillation score of the first is higher: 76.6 % of control for the first, 56.4 % of control for the second.

Going from “CTCAAACTTAAATTTATT (sugars l4 d10 l4, PS)” to “TTACCATCCTATCTTCTA (sugars l2 d13 l3, PS)”, the calcium oscillation score rises from 82.4 % of control to 90.3 % of control.

Compared with TCAGGTCAACTGGTTT (sugars l3 d10 l3, PS), ACACTGTCGTCGAATG (sugars l3 d10 l3, PS) is lower in calcium oscillation score: 95.9 % of control for the first, 9.52 % of control for the second.

Compared with “ATATTGAACTCACCCAC (sugars l2 d11 l4, PS)”, “CCTTACTTTCTACTCAAT (sugars l2 d12 l4, PS)” is higher in calcium oscillation score: 54.3 % of control for the first, 62.1 % of control for the second.

Compared with “ATTTAGTTTTCCCACCCA (sugars l1 d15 l2, PS)”, “TATTAATTATCTGCACC (sugars l3 d10 l4, PS)” is higher in calcium oscillation score: 48 % of control for the first, 50.9 % of control for the second.

Compared with TCATAGTCACTCTGGT (sugars l3 d10 l3, PS), “ATTTCAGAGCAAAGTGACCC (sugars l3 d14 l3, PS)” is lower in calcium oscillation score: 85.7 % of control for the first, 74.5 % of control for the second.

Going from “ACCCATCCCACAAAGAACAG (sugars l3 d14 l3, PS)” to AGAGGCACAAGTCCTT (sugars l3 d10 l3, PS), the calcium oscillation score rises from 34.2 % of control to 78.1 % of control.

Compared with “CAGTAACATCCATTTCT (sugars l4 d11 l2, PS)”, GGCGGTGACTGCGAG (sugars l3 d9 l3, PS) is lower in calcium oscillation score: 86.2 % of control for the first, 51.5 % of control for the second.

Going from “CCTTTTCTACTCTACTCTC (sugars l3 d14 l2, PS)” to GAGTCTACCATGTCGA (sugars l3 d10 l3, PS), the calcium oscillation score rises from 55.7 % of control to 65.2 % of control.
